# Assay results reported in paper PMC10794144, “A novel antibiotic class targeting the lipopolysaccharide transporter” (Nature, 2024).
# Where two headings read alike, the source gives them in different places.
# System: A. baumannii
# Assay: microbe, parasite or virus in culture
# Conditions: Acinetobacter baumannii, 100%
# Procedure, shortened: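 Values come from CLSI-guided (M07, M100) broth microdilution in CAMHB. Endpoint: lowest concentration halting growth, judged by naked eye or by OD600 plateau.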
smiles,measurement,setting,value
"C[C@@H](O)[C@H]1C(=O)N2C(C(=O)O)=C(S[C@@H]3CN[C@H](C(=O)N(C)C)C3)[C@H](C)[C@H]12 [meropenem, reference compound]",MIC,"read-out: MIC 100%, ROB08705, Study LGC295147",32 µg/mL
same,MIC,"read-out: MIC 100%, ROB08705, Study LGC296813",32 µg/mL
same,MIC,"read-out: MIC 100%, ROB08705, Study LGC299544",32 µg/mL
same,MIC,"read-out: MIC 100%, ROB08705, Study LGC301026",64 µg/mL
same,MIC,"read-out: MIC 100%, ROB08705, Study LGC308175",32 µg/mL
same,MIC,"read-out: MIC 100%, ROB08705, Study ROC003",32 µg/mL
same,MIC,"read-out: MIC 100%, ROB08705, Study ROC004",64 µg/mL
same,MIC,"read-out: MIC 100%, ROB08705, Study ROC005",64 µg/mL
same,MIC,"read-out: MIC 100%, ROB08705, Study ROC006",64 µg/mL
same,MIC,"read-out: MIC 100%, ROB08705, Study ROC007",32 µg/mL
same,MIC,"read-out: MIC 100%, ROB08705, Study ROC008",> 64 µg/mL
same,MIC,"read-out: MIC 100%, ROB08705, Study ROC009",32 µg/mL
same,MIC,"read-out: MIC 100%, ROB08705, Study ROC010",64 µg/mL
same,MIC,"read-out: MIC 100%, ROB08705, Study ROC012",32 µg/mL
same,MIC,"read-out: MIC 100%, ROB08705, Study ROC013",32 µg/mL
same,MIC,"read-out: MIC 100%, ROB08706, Study LGC277937",64 µg/mL
same,MIC,"read-out: MIC 100%, ROB08706, Study LGC279800",> 64 µg/mL
same,MIC,"read-out: MIC 100%, ROB08706, Study LGC281440",32 µg/mL
same,MIC,"read-out: MIC 100%, ROB08706, Study LGC282160",64 µg/mL
same,MIC,"read-out: MIC 100%, ROB08706, Study LGC282623",64 µg/mL
same,MIC,"read-out: MIC 100%, ROB08706, Study LGC283932",64 µg/mL
same,MIC,"read-out: MIC 100%, ROB08706, Study LGC284200",32 µg/mL
same,MIC,"read-out: MIC 100%, ROB08706, Study LGC284879",64 µg/mL
same,MIC,"read-out: MIC 100%, ROB08706, Study LGC285582",64 µg/mL
same,MIC,"read-out: MIC 100%, ROB08706, Study LGC286210",64 µg/mL
same,MIC,"read-out: MIC 100%, ROB08706, Study LGC293598",64 µg/mL
same,MIC,"read-out: MIC 100%, ROB08706, Study LGC294355",64 µg/mL
same,MIC,"read-out: MIC 100%, ROB08706, Study LGC295147",64 µg/mL
same,MIC,"read-out: MIC 100%, ROB08706, Study LGC296813",64 µg/mL
same,MIC,"read-out: MIC 100%, ROB08706, Study LGC299544",64 µg/mL
same,MIC,"read-out: MIC 100%, ROB08706, Study LGC301026",64 µg/mL
same,MIC,"read-out: MIC 100%, ROB08706, Study LGC308175",64 µg/mL
same,MIC,"read-out: MIC 100%, ROB08706, Study ROC004",64 µg/mL
same,MIC,"read-out: MIC 100%, ROB08706, Study ROC005",64 µg/mL
same,MIC,"read-out: MIC 100%, ROB08706, Study ROC006",> 64 µg/mL
same,MIC,"read-out: MIC 100%, ROB08706, Study ROC007",64 µg/mL
same,MIC,"read-out: MIC 100%, ROB08706, Study ROC008",64 µg/mL
same,MIC,"read-out: MIC 100%, ROB08706, Study ROC009",64 µg/mL
same,MIC,"read-out: MIC 100%, ROB08706, Study ROC010",32 µg/mL
same,MIC,"read-out: MIC 100%, ROB08706, Study ROC012",64 µg/mL
same,MIC,"read-out: MIC 100%, ROB08706, Study ROC013",64 µg/mL
same,MIC,"read-out: MIC 100%, ROB08707, Study LGC277937",32 µg/mL
same,MIC,"read-out: MIC 100%, ROB08707, Study LGC279800",32 µg/mL
same,MIC,"read-out: MIC 100%, ROB08707, Study LGC281440",32 µg/mL
same,MIC,"read-out: MIC 100%, ROB08707, Study LGC282160",32 µg/mL
same,MIC,"read-out: MIC 100%, ROB08707, Study LGC282623",64 µg/mL
same,MIC,"read-out: MIC 100%, ROB08707, Study LGC283932",64 µg/mL
same,MIC,"read-out: MIC 100%, ROB08707, Study LGC284200",32 µg/mL
same,MIC,"read-out: MIC 100%, ROB08707, Study LGC284879",64 µg/mL
same,MIC,"read-out: MIC 100%, ROB08707, Study LGC285582",32 µg/mL
same,MIC,"read-out: MIC 100%, ROB08707, Study LGC286210",32 µg/mL
same,MIC,"read-out: MIC 100%, ROB08707, Study LGC293598",32 µg/mL
same,MIC,"read-out: MIC 100%, ROB08707, Study LGC294355",32 µg/mL
same,MIC,"read-out: MIC 100%, ROB08707, Study LGC295147",64 µg/mL
same,MIC,"read-out: MIC 100%, ROB08707, Study LGC296813",32 µg/mL
same,MIC,"read-out: MIC 100%, ROB08707, Study LGC299544",64 µg/mL
same,MIC,"read-out: MIC 100%, ROB08707, Study LGC301026",32 µg/mL
same,MIC,"read-out: MIC 100%, ROB08707, Study LGC308175",32 µg/mL
same,MIC,"read-out: MIC 100%, ROB08707, Study ROC004",32 µg/mL
same,MIC,"read-out: MIC 100%, ROB08707, Study ROC005",32 µg/mL
same,MIC,"read-out: MIC 100%, ROB08707, Study ROC006",64 µg/mL
same,MIC,"read-out: MIC 100%, ROB08707, Study ROC007",64 µg/mL
same,MIC,"read-out: MIC 100%, ROB08707, Study ROC008",32 µg/mL
same,MIC,"read-out: MIC 100%, ROB08707, Study ROC009",32 µg/mL
same,MIC,"read-out: MIC 100%, ROB08707, Study ROC010",32 µg/mL
same,MIC,"read-out: MIC 100%, ROB08707, Study ROC012",32 µg/mL
same,MIC,"read-out: MIC 100%, ROB08707, Study ROC013",32 µg/mL
same,MIC,"read-out: MIC 100%, ROB08708, Study LGC277937",> 64 µg/mL
same,MIC,"read-out: MIC 100%, ROB08708, Study LGC279800",32 µg/mL
same,MIC,"read-out: MIC 100%, ROB08708, Study LGC281440",16 µg/mL
same,MIC,"read-out: MIC 100%, ROB08708, Study LGC282160",16 µg/mL
same,MIC,"read-out: MIC 100%, ROB08708, Study LGC282623",32 µg/mL
same,MIC,"read-out: MIC 100%, ROB08708, Study LGC283932",32 µg/mL
same,MIC,"read-out: MIC 100%, ROB08708, Study LGC284200",32 µg/mL
same,MIC,"read-out: MIC 100%, ROB08708, Study LGC284879",32 µg/mL
same,MIC,"read-out: MIC 100%, ROB08708, Study LGC285582",32 µg/mL
same,MIC,"read-out: MIC 100%, ROB08708, Study LGC286210",16 µg/mL
same,MIC,"read-out: MIC 100%, ROB08708, Study LGC293598",16 µg/mL
same,MIC,"read-out: MIC 100%, ROB08708, Study LGC294355",16 µg/mL
same,MIC,"read-out: MIC 100%, ROB08708, Study LGC295147",32 µg/mL
same,MIC,"read-out: MIC 100%, ROB08708, Study LGC296813",32 µg/mL
same,MIC,"read-out: MIC 100%, ROB08708, Study LGC299544",32 µg/mL
same,MIC,"read-out: MIC 100%, ROB08708, Study LGC301026",32 µg/mL
same,MIC,"read-out: MIC 100%, ROB08708, Study LGC308175",64 µg/mL
same,MIC,"read-out: MIC 100%, ROB08708, Study ROC004",32 µg/mL
same,MIC,"read-out: MIC 100%, ROB08708, Study ROC005",16 µg/mL
